Experimental data reported in ChEMBL document CHEMBL4392880, “Bioactive Diterpenoids from the Stems of Euphorbia antiquorum” (J Nat Prod, 2019).
pIC50: −log10 of the molar value.

Columns and labels:
BV-2 [1] = assay: Antiinflammatory activity in mouse BV2 cells assessed as inhibition of LPS-induced nitric oxide production incubated for 24 hrs by Griess assay; assay type: functional, cell-based; conditions: BV-2, 24 h
BV-2 [2] = assay: Cytotoxicity against mouse BV2 cells assessed as effect on cell survival by MTT assay; assay type: cell-based

| SMILES | pIC50 (BV-2 [1]) | Activity (BV-2 [2]) |
| --- | --- | --- |
| CCCC(=O)OC[C@]1(C)C(=O)CC[C@@]2(C)[C@@H]3C[C@@H]4CC[C@@]3(CC[C@@H]21)C[C@@]4(O)CO | 4.37 | Non-Toxic |
| C/C=C(\C)C(=O)O[C@H]1[C@H]2[C@@H]([C@@H](OC(C)=O)[C@@H](C)C(=O)[C@@]34C[C@H](C)[C@H](OC(C)=O)[C@]3(/C=C(\C)[C@H]1O)O4)C2(C)C | < 4.00 | Non-Toxic |
| C/C=C(\C)C(=O)O[C@H]1[C@H]2[C@@H]([C@@H](OC(C)=O)[C@@H](C)C(=O)[C@@]34C[C@H](C)[C@H](OC(=O)c5ccccc5)[C@]3(/C=C(\C)[C@H]1O)O4)C2(C)C | 4.84 | Non-Toxic |
| C=C1C[C@@]23CC[C@H]4[C@@](C)(CCC(=O)[C@@]4(C)COC(=O)/C(C)=C/C)[C@@H]2C[C@@H]1CC3=O | 4.54 | Non-Toxic |
| CC1(C)C(=O)CC[C@]2(C)[C@@H]1CC[C@@]13C[C@H](CC[C@H]12)[C@@](O)(CO)C3 | < 4.00 | Non-Toxic |
| CCCC(=O)OC[C@]1(C)C(=O)CC[C@@]2(C)[C@@H]3CC[C@@H]4C[C@@]3(CC[C@@H]21)C[C@@]4(O)CO | 4.37 | Non-Toxic |
| C=C1C[C@]23CC[C@H]1C[C@H]2[C@]1(C)CCC(=O)[C@@](C)(CO)[C@H]1CC3 | 4.60 | Non-Toxic |
| CC(=O)O[C@H]1CCC(C)(C)[C@H]2CC[C@@]34O[C@@H]3C3=C(C)C(=O)O[C@@H]3C[C@H]4[C@]12C | 4.62 | Non-Toxic |
| C=C1C[C@@]23CC[C@H]4[C@@](C)(CCC(=O)[C@@]4(C)COC(C)=O)[C@@H]2C[C@@H]1CC3=O | 4.11 | Non-Toxic |
| C=C1C[C@@]23CC[C@H]4[C@@](C)(CCC(=O)[C@@]4(C)COC(C)=O)[C@@H]2C[C@@H]1[C@@H](O)C3=O | < 4.00 | Non-Toxic |
| C=C1C[C@@]23CC[C@H]4[C@@](C)(CCC(=O)[C@@]4(C)COC(=O)CCC)[C@@H]2C[C@@H]1[C@@H](O)C3=O | < 4.00 | Non-Toxic |
| CC1(C)CCC[C@]2(C)[C@@H]1CC[C@@]13O[C@@H]1C1=C(CO)C(=O)OC1=C[C@@H]23 | 5.04 | Non-Toxic |
| CCC(=O)OC[C@]1(C)C(=O)CC[C@@]2(C)[C@@H]3C[C@@H]4CC[C@@]3(CC[C@@H]21)C[C@@]4(O)CO | 4.12 | Non-Toxic |
| C/C=C(\C)C(=O)O[C@H]1[C@H]2[C@@H]([C@@H](OC(C)=O)[C@@H](C)C(=O)[C@@]34C[C@H](C)[C@H](OC(=O)/C(C)=C/C)[C@]3(/C=C(\C)[C@H]1O)O4)C2(C)C | 4.57 | Non-Toxic |
| C=C1C[C@@]23CC[C@H]4[C@@](C)(CCC(=O)[C@@]4(C)COC(=O)/C(C)=C/C)[C@@H]2C[C@@H]1[C@@H](O)C3=O | 4.35 | Non-Toxic |
| CC1=C2[C@H]3O[C@]34CC[C@@H]3C(C)(C)CCC[C@@]3(C)[C@@H]4C[C@H]2OC1=O | 4.82 | Non-Toxic |
| C=C[C@]1(C)C=C2CC[C@H]3[C@](C)(C=O)[C@@H](O)CC[C@]3(C)[C@H]2CC1 [SANDARACOPIMARADIENOLAL] | < 5.00 | Non-Toxic |
| CSC(=N)N.O=S(=O)(O)O | 5.51 | Non-Toxic |
| C=C1C[C@@]23CC[C@H]4[C@@](C)(CCC(=O)[C@@]4(C)COC(=O)CCC)[C@@H]2C[C@@H]1CC3=O | < 4.22 | Non-Toxic |
